From patent publication US3989837A, “Pharmaceutical compositions” (Chinoin Gyogyszer-es Vegyeszeti Termekek Gyara RT, priority 1972, dated 1976)
Read-outs that look alike come from different tables or passages of the source.

Key:
[1] = test system: writhing syndrome; experiment: Writhing syndrome, comparison with Indomethacine (Table 7); type: in vivo, mouse; settings: for Effect % average, writhing: male mice
Procedure: The tests were carried out on male mice each weighing 15 to 18 g., starved for 16 hours prior to treatment. 0.1 ml./10 g. body weight of 1% acetic acid solution was injected intraperitoneally to the animals. The sterile inflammation occurred on the action of acetic acid provoked a characteristic syndrome (writhing). The number of writhings was counted during an observation period of 20 minutes, starting 15 minutes after the administration of acetic acid. The substance to be tested was administered orally as a suspension, in a dosage of 0.1 ml./10 g. body weight 2 to 4 hours before the acetic acid injection. The average number of writhings observed for the treated animals was compared to that observed in the control group, and the percentage inhibition was calculated from the difference.

[2] = Toxicity on mice after oral administration, single dosage (Table 1'); type: in vivo; settings: mouse, in vivo, po, male mice, p.o., 168 hours
Procedure: (§1) The tests were carried out on male mice weighing 25 to 30 g., not starved previously. The compounds were administered in a dosage of 0.2 ml. of suspension per 10 g. body weight. The individual dosages indicated in Table 1' were administered to 10 mice each. The given amount of active agent was added in a single dosage, and the animals were dept under observation for 7 days (= 168 hours). The number of deceased animals was recorded daily.
(§2) The LD50 values were calculated according to the Litchfied-Wilcoxon method, by also taking into account the number of animals perished within 168 hours from the administration.

[3] = test system: mice; experiment: as above; type: in vivo; settings: for Perished animals/treated animals: male mice
Procedure: as §1, §2

[4] = test system: kaoline oedema; experiment: Rat paw oedema, kaoline (Table 4'); type: in vivo; settings: for Effect % (average), inhibition of kaoline oedema / Effect %, inhibition of kaoline oedema: female rats; for Effect % (average), inhibition of kaoline oedema: average of repeated tests
Procedure: (§3) Inflammatory plantar oedema was provided by the subplantar injection of 0.1 ml. of 5% kaoline or 0.5% carrageenine on female rats each weighing 110 to 130 g., starved for 24 hours. The dorsoplantar diameter of the test animals was measured with a double-armed instrument prior to the administration of the phlogistic (basic value) and at regular intervals (at 2, 3.5 and 5 hours for kaoline and at 1.5, 3 and 4.5 hours for carrageenine) after the administration of the phlogistic. […] The treatment was always carried out 1 hour before the administration of the phlogistic. The animals belonging to the control group received suspending agent only. In order to ensure a uniform hydration grade, 1 ml. of tap water was administered through a stomach tube to the animals simultaneously with the administration of the active agent. During the test period the animals were allowed to consume water ad libitum.
(§4) The effect was calculated from the difference of the increase in paw diameter observed in the treated and control groups. The daga are given as percentage efficiacy.
(§5) The significance level was examined by Student's t test. The significance levels are marked by asterisks; the values of the repeated tests are given separately.

[5] = test system: rats; experiment: Ulcerogeneous action on rats, comparison with Indomethacine (Table 3'); settings: for Animals having lesions on the intestines / Survivals / Ulcer number: male rats, 5 days
[6] = test system: carrageenine oedema; experiment: Rat paw oedema, carrageenine (Table 5'); type: in vivo; settings: for Effect %, inhibition of carrageenine oedema: female rats
Procedure: as §3, §4, §5

[7] = test system: cotton granuloma; experiment: Cotton granuloma, comparison with Indomethacine (Table 6); type: in vivo, rat; settings: for Effect %, cotton granuloma: male rats, 7 days
Procedure: Two cotton beads, each weighing 23 to 27 mg., were implanted under the dorsal skin of the animals in aether narcosis, under semisterile conditions, along both sides of the vertebral column. The compound under examination was administered twice a day for 7 days in oral dosages of 0.2 ml./100 g. body weight, in a suspension formed with 1% methyl cellulose. On the 8th day the animals were killed by etheral overnarcosis, the granulomes were removed, dried at 50° C for 5 hours, and then weighed. The animals belonging to the control group were treated similarly, but they received suspending agent only. The percentage efficiacy was calculated from the weight differences of the granuloma tissues observed for the treated and control groups. The significance was examined by the t test.

COc1ccc2c(c1)c(CC(=O)OCC(Cl)(Cl)Cl)c(C)n2C(=O)c1ccc(Cl)cc1 [Example 5, 1-(p-chlorobenzoyl)-2-methyl-5-methoxy-indol-3-yl-acetic-acid trichloroethyl ester]
Effect % average, writhing ([1]; p.o. 6.8 (5) mg./kg., 2 hours): 24.8% | Effect % average, writhing ([1]; p.o. 6.8 (5) mg./kg., 4 hours): 19.3% | Effect % average, writhing ([1]; p.o. 17.1 (12.5) mg./kg., 2 hours): 56.1% | Effect % average, writhing ([1]; p.o. 17.1 (12.5) mg./kg., 4 hours): 53.5% | dosage provoking the same analgesic effect, times higher than Indomethacine ([1]; writhing, ratio refers to molar equivalents): 2.5 times | LD50 at 168 h ([2]; equivalent amounts of Indomethacine, read-out: LD50 as equivalent amount of Indomethacine): 1570 mg/kg | LD50 at 168 h ([2]; read-out: LD50): 2150 mg/kg | therapeutical width compared with Indomethacine ([3]; considering the toxicity values): far more favorable than that of Indomethacine | Perished animals/treated animals ([3]; oral 1367 (1000) mg./kg., 24 h): 0/10 | Perished animals/treated animals ([3]; oral 1367 (1000) mg./kg., 48 h): 0/10 | Perished animals/treated animals ([3]; oral 1367 (1000) mg./kg., 72 h): 0/10 | Perished animals/treated animals ([3]; oral 1367 (1000) mg./kg., 96 h): 0/10 | Perished animals/treated animals ([3]; oral 1367 (1000) mg./kg., 120 h): 0/10 | Perished animals/treated animals ([3]; oral 1367 (1000) mg./kg., 144 h): 0/10 | Perished animals/treated animals ([3]; oral 1367 (1000) mg./kg., 168 h): 0/10 | Perished animals/treated animals ([3]; oral 2050 (1500) mg./kg., 24 h): 0/10 | Perished animals/treated animals ([3]; oral 2050 (1500) mg./kg., 48 h): 0/10 | Perished animals/treated animals ([3]; oral 2050 (1500) mg./kg., 72 h): 0/10 | Perished animals/treated animals ([3]; oral 2050 (1500) mg./kg., 96 h): 0/10 | Perished animals/treated animals ([3]; oral 2050 (1500) mg./kg., 120 h): 0/10 | Perished animals/treated animals ([3]; oral 2050 (1500) mg./kg., 144 h): 0/10 | Perished animals/treated animals ([3]; oral 2050 (1500) mg./kg., 168 h): 1/10 | Perished animals/treated animals ([3]; oral 2734 (2000) mg./kg., 24 h): 0/10 | Perished animals/treated animals ([3]; oral 2734 (2000) mg./kg., 48 h): 0/10 | Perished animals/treated animals ([3]; oral 2734 (2000) mg./kg., 72 h): 2/10 | Perished animals/treated animals ([3]; oral 2734 (2000) mg./kg., 96 h): 2/10 | Perished animals/treated animals ([3]; oral 2734 (2000) mg./kg., 120 h): 4/10 | Perished animals/treated animals ([3]; oral 2734 (2000) mg./kg., 144 h): 6/10 | Perished animals/treated animals ([3]; oral 2734 (2000) mg./kg., 168 h): 6/10 | Perished animals/treated animals ([3]; oral 3417 (2500) mg./kg., 24 h): 0/10 | Perished animals/treated animals ([3]; oral 3417 (2500) mg./kg., 48 h): 1/10 | Perished animals/treated animals ([3]; oral 3417 (2500) mg./kg., 72 h): 1/10 | Perished animals/treated animals ([3]; oral 3417 (2500) mg./kg., 96 h): 3/10 | Perished animals/treated animals ([3]; oral 3417 (2500) mg./kg., 120 h): 4/10 | Perished animals/treated animals ([3]; oral 3417 (2500) mg./kg., 144 h): 6/10 | Perished animals/treated animals ([3]; oral 3417 (2500) mg./kg., 168 h): 7/10 | Perished animals/treated animals ([3]; oral 4101 (3000) mg./kg., 24 h): 0/10 | Perished animals/treated animals ([3]; oral 4101 (3000) mg./kg., 48 h): 1/10 | Perished animals/treated animals ([3]; oral 4101 (3000) mg./kg., 72 h): 3/10 | Perished animals/treated animals ([3]; oral 4101 (3000) mg./kg., 96 h): 4/10 | Perished animals/treated animals ([3]; oral 4101 (3000) mg./kg., 120 h): 5/10 | Perished animals/treated animals ([3]; oral 4101 (3000) mg./kg., 144 h): 7/10 | Perished animals/treated animals ([3]; oral 4101 (3000) mg./kg., 168 h): 7/10 | Effect % (average), inhibition of kaoline oedema ([4]; p.o. 13.67 (10) mg./kg., 2 hours): 10.2% | Effect % (average), inhibition of kaoline oedema ([4]; p.o. 13.67 (10) mg./kg., 3.5 hours): 15.8% | Effect % (average), inhibition of kaoline oedema ([4]; p.o. 13.67 (10) mg./kg., 5 hours): 18.8% | Effect % (average), inhibition of kaoline oedema ([4]; p.o. 34.17 (25) mg./kg., 2 hours): 12.0% | Effect % (average), inhibition of kaoline oedema ([4]; p.o. 34.17 (25) mg./kg., 3.5 hours): 22.1% | Effect % (average), inhibition of kaoline oedema ([4]; p.o. 34.17 (25) mg./kg., 5 hours): 27.3% | Effect %, inhibition of kaoline oedema ([4]; p.o. 68.35 (50) mg./kg., 2 hours): 21.9% | Effect %, inhibition of kaoline oedema ([4]; p.o. 68.35 (50) mg./kg., 3.5 hours): 30.2% | Effect %, inhibition of kaoline oedema ([4]; p.o. 68.35 (50) mg./kg., 5 hours): 33.3% | Effect %, inhibition of kaoline oedema ([4]; p.o. 136.7 (100) mg./kg., 2 hours): 26.9% | Effect %, inhibition of kaoline oedema ([4]; p.o. 136.7 (100) mg./kg., 3.5 hours): 41.1% | Effect %, inhibition of kaoline oedema ([4]; p.o. 136.7 (100) mg./kg., 5 hours): 37.9% | dosage inhibiting oedema, times higher than Indomethacine ([4]; kaoline oedema, molar equivalents compared): about 2.5 times | antiphlogistic effect, times weaker than Indomethacine ([4]; summary of the comparison): about 2.5 times | Animals having lesions on the intestines ([5]; oral 27.3 (20) mg./kg.): 10.5% | Survivals ([5]; oral 27.3 (20) mg./kg.): 19 | Ulcer number ([5]; oral 27.3 (20) mg./kg.): 0 | Animals having lesions on the intestines ([5]; oral 54.7 (40) mg./kg.): 80% | Survivals ([5]; oral 54.7 (40) mg./kg.): 15 | Ulcer number ([5]; oral 54.7 (40) mg./kg.): 0.27 | frequency of occurrence of intestinal lesions compared with Indomethacine ([5]; rats, oral, fivefold dosage): doubled | lesions on intestines compared with Indomethacine ([5]; rats, oral, fivefold dosage): far more severe | extent of perishment, lower than that caused by Indomethacine 8 mg./kg. ([5]; rats, oral, fivefold dosage with respect to Indomethacine (8 mg./kg.)): 50% | lesions on the mucous membrane of the stomach ([5]; rats, oral, Indomethacine 4 and 8 mg./kg., […]): slightly more severe lesions | dosage inhibiting oedema, times higher than Indomethacine ([6]; carrageenine oedema, molar equivalents compared): about 2.5 times | Effect %, inhibition of carrageenine oedema ([6]; p.o. 13.67 (10) mg./kg., 1.5 hours): 9.8% | Effect %, inhibition of carrageenine oedema ([6]; p.o. 13.67 (10) mg./kg., 3 hours): 15.8% | Effect %, inhibition of carrageenine oedema ([6]; p.o. 13.67 (10) mg./kg., 4.5 hours): 16.0% | Effect %, inhibition of carrageenine oedema ([6]; p.o. 34.17 (25) mg./kg., 1.5 hours): 10.8% | Effect %, inhibition of carrageenine oedema ([6]; p.o. 34.17 (25) mg./kg., 3 hours): 18.3% | Effect %, inhibition of carrageenine oedema ([6]; p.o. 34.17 (25) mg./kg., 4.5 hours): 21.9% | Effect %, inhibition of carrageenine oedema ([6]; p.o. 68.35 (50) mg./kg., 1.5 hours): 14.8% | Effect %, inhibition of carrageenine oedema ([6]; p.o. 68.35 (50) mg./kg., 3 hours): 19.9% | Effect %, inhibition of carrageenine oedema ([6]; p.o. 68.35 (50) mg./kg., 4.5 hours): 28.5% | effect on cotton granuloma compared with Indomethacine ([7]; even when added in a twofold dosage): lower than that of Indomethacine | Effect %, cotton granuloma ([7]; oral daily 5.5 (4) mg./kg., p 0.01): 19.5% | Effect %, cotton granuloma ([7]; oral daily 11 (8) mg./kg., p 0.001): 24.8%
